Test results: patent EP2703005A1, “Inhibitors of alpha6 Integrin/E-Cadherin Complex” (Università Degli Studi Di Torino, priority 2012, dated 2014)

Key:
β4 integrin = molecular target: T1, β4 integrin (Homo sapiens, UniProt P16144+P23229); experiment: Affinity purification of liver metastasis lysates on column-immobilized peptide, ELISA for integrin subunits; type: binding; conditions: lysates of 7 pooled human liver metastases, versus salt and control peptide fractions
T1 construct: from tissue; host or cells: 7 pooled human liver metastases secondary to CRC
Procedure: Validation of MTS-phage targets. Binding of single phage clones on whole cells was performed with a 10^9 TU input of each phage on 5x10^5 suspended cells in binding medium as described (Chambers et al. 2002. Nat Rev Cancer, 2:563-572). For overlay binding experiments, 5 x10^9 TU/ml of each phage was incubated with 10 µm tissue sections of OCT-frozen tissues and detected as described , with the EnVision system (DAKO) and 3-amino-9-ethylcarbazole (AEC) as substrate (Arap et al 2002, Nat Med, 8:121-127; Padua et al. 2008, Cell, 133:66-77). Phage overlay images were acquired with an EC3 Leica camera (Leica Microsystems, Milan, Italy). […] Protein amounts in collected fractions were followed by reading their OD at 280 nm, and selected fractions were concentrated by the use of Microcon centrifugal filter devices with cut-off 10,000 (Millipore) to remove residual synthetic peptides. Proteins were quantified with the Coomassie (Bradford) Protein Assay Kit (Pierce), and 500 ng of each sample was evaluated for the presence of specific integrin subunits with a standard ELISA assay. In parallel, the relative amount of targeted proteins was assessed by phage binding as described (66), on 2 µg of each sample and with an input of 10^9 TU of fd-tet or […]-phage. […]

NCI-H630 cells [1] = experiment: Cell adhesion to peptides and proteins coated on microwells; type: cell-based, human
Source text: Preparation of cell lines with silenced expression of the MTS-tageted genes. A transient gene silencing approach was applied to cells used exclusively for short-term, in vitro experiments. NCI-H630 cells were transduced with ON-TARGETplus SmartPOOL siRNA for ITGA6 and CDH1, or with control siRNA (Dharmacon, Lafayette, CO). For each experimental point, 2x10^5 cells were reverse-transfected with either control, ITGA6, CDH1, or both siRNA pools, according to the manufacturer's protocol. To quantify the downmodulation of targeted genes, RNA and protein levels were evaluated after 24 and 72 hours, respectively. A stable gene silencing approach was preferred for cells used for long-term, in vivo experiments. For this purpose, 2x10^5 HCT-116m, SW-48, HT-29, or DLD-1 cells were transfected with shRNA plasmid pools targeting ITGA6 (sc-43129-SH) or CDH1 (sc-35242-SH), or with non-targeting control shRNA plasmid pool A (sc-108060) (all from Santa Cruz Biotechnologies), according to the manufacturer's protocol. Following selection in medium supplemented with 2.5 µg/ml puromycin, 6 clones for each experimental point were subjected to dotblot analysis to confirm selective protein down-regulation. […]
(§1) Adhesion, proliferation, and migration assays. […] Adhered cells were counted manually under a light microscope.

DLD-1 [2] = experiment: Liver adhesion assay on frozen sections of grossly normal human liver; type: cell-based; conditions: 30 minutes, versus control peptide
Procedure: (§2) Adhesion, proliferation, and migration assays. All the described in vitro tests were performed at least in triplicate. For investigation of cell adhesion to peptides and proteins, 1 µg of each substrate was incubated per well of a 96 well-plate for 1 hour at 37°C. After a blocking step in IMDM, 2% FCS for 1 hour at 37°C, 10^4 cells were allowed to adhere for 1 hour at 37°C. Samples were washed gently in PBS, and cells were fixed in 8% glutaraldehyde and stained in 0.25% crystal violet in 10% methanol. For tissue adhesion, OCT-frozen grossly normal liver samples were cut into 10 µm sections. Tissues were blocked in IMDM, 2% FCS for 30 minutes at 37°C, followed by incubation with 5x10^4 cells in 5% CO2 at 37°C, for the indicated periods of time. Samples were washed 4 times in the same medium and once in PBS, fixed in 4% para-formaldehyde, and stained with hematoxylin (BioOptica). Adhered cells were counted manually under a light microscope.

HCT-116 cells = experiment: as above; type: cell-based; conditions: non-metastatic cells with very low levels of the receptor proteins; 30 minutes
Procedure: as §2

HCT-116m [3] = experiment: as above; type: cell-based; conditions: 30 minutes, versus control peptide
Procedure: as §2

HT-29 = experiment: as above; type: cell-based; conditions: 30 minutes, versus control peptide
Procedure: as §2

NCI-H630 cells [4] = experiment: as above; type: cell-based; conditions: liver sections from 27 patients, 30 minutes, versus control peptide
Procedure: as §2

SW-48 [5] = experiment: as above; type: cell-based; conditions: 30 minutes, versus control peptide
Procedure: as §2

[6] = system: U293 cells transduced with α6 integrin, E-cadherin or both; experiment: as above; type: cell-based; conditions: 30 minutes, versus control peptide
Source text: (§3) Preparation of cells stably overexpressing the MTS-targeted proteins. The cDNA of FLAG-tagged human angiopoietin-like 6, inserted into pcDNA3.1 (+).Neo vector (pcDNA3.ANGL6), was a gift from Dr. Y. Oike (Japan Science and Technology Agency, Japan (Minn et al., 2007, Proc Natl Acad Sci USA, 104:6740-6745); the cDNA of human E-cadherin, cloned into a pcDNA3.1 (+). Neo vector (pcDNA3.CAD1) was a gift from Dr. C. Gottardi (North Western University Medical School, Chicago, IL (Bos, et al. 2009, Nature 459:1005-1009); the cDNA of β4 integrin, cloned into a PRK5 plasmid (pRK5.ITB4), was purchased from Addgene (Cambridge, MA); the cDNA of human α6A integrin, inserted in pLXSN plasmid (pLα6SN (Kuo et al. 1995, Proc Natl Acad Sci USA, 92:12085-12089), was a gift of Dr. A. Magrelli (La Sapienza University, Rome, Italy). The latter was PCR-amplified with the following primer pair: • 5'-[…]-3' (SEQ ID No 28) and • 5'-[…]-3' (SEQ ID No 29) and subcloned into a pcDNA3.1 (+). Hygro vector between HindIII and ApaI sites to obtain the pcDNA3.ITA6A plasmid. […]
as §1

[7] = system: U293 cells stably overexpressing E-cadherin, α6 integrin or both; experiment: Cell proliferation assay (crystal violet); type: cell-based, human; conditions: 100 µM peptide, 10% FCS, versus control peptide
Source text: as §3, with “(+).” for “(+). Hygro vector between HindIII and ApaI sites to obtain the pcDNA3.ITA6A plasmid.”
To test the effects of peptides on cell proliferation, we seeded 2x10^4 cells per well in a 24-well plate, in the presence of either control or […] peptide (100 µM). […] Cell growth was evaluated by absorbance at 590 nm in a microplate reader (Perkin Elmerm Waltham, MA). A calibration curve was set up with known numbers of cells and a linear correlation between absorbance and cell counts was established up to 5x10^5 cells/well.

LS-174T cells = experiment: Hepatic colonization model, intrahepatic injection of CRC cells; type: in vivo, CD-1 nude mice; conditions: 5x10^6 cells/mouse injected with 100 µM soluble peptide, 14 days, versus vehicle
Procedure: Animal models of human metastatic CRC. Six-week female CD1-nude mice were purchased from Charles River (Lecco, Italy). Animals were subjected to intraperitoneal anaesthesia with a mixture composed by 0.75 mg/ml xylazine (Xilor®, BIO98, Milan, Italy), 1 mg/ml tiletamine - 1mg/ml zolazepam (Zoletil®, Virbac, Milan, Italy), in physiological solution. After the mice were deeply asleep, a midline incision was performed and target organs were gently exposed. Two or five million suspended cells were injected in 50 µl of culture medium intrasplenically (Tibbettset al. 1993. Cancer, 71:315-321) or into the median liver lobe (Grothey, et al. 2009. Nat Rev Clin Oncol, 6:507-518), respectively. To investigate a pharmacological intervention on liver homing and/or colonization of CRC cells, animals were divided in two arms, receiving medium alone (vehicle) or supplemented with 100 µM […] peptide. The wound was closed by a double suture and each animal was given 0.1 mg caprofen (Rymadil®, Pfizer, Milan, Italy) in a physiological solution to allow post-operative pain relief and rehydration. Mice were strictly monitored until completely awake, and oral ampicillin was administered for 5 days following the surgery. […] External metastatic areas were quantified using ImageJ software.

DLD-1 [8] = experiment: Liver homing model, intrasplenic implantation; type: in vivo, CD-1 nude mice; conditions: 2x10^6/mouse intrasplenically with 100 µM soluble peptide, versus vehicle; effect stated as not significant in this model
Procedure: (§4) Animal models of human metastatic CRC. Six-week female CD1-nude mice were purchased from Charles River (Lecco, Italy). Animals were subjected to intraperitoneal anaesthesia with a mixture composed by 0.75 mg/ml xylazine (Xilor®, BIO98, Milan, Italy), 1 mg/ml tiletamine - 1mg/ml zolazepam (Zoletil®, Virbac, Milan, Italy), in physiological solution. After the mice were deeply asleep, a midline incision was performed and target organs were gently exposed. Two or five million suspended cells were injected in 50 µl of culture medium intrasplenically (Tibbettset al. 1993. Cancer, 71:315-321) or into the median liver lobe (Grothey, et al. 2009. Nat Rev Clin Oncol, 6:507-518), respectively. To investigate a pharmacological intervention on liver homing and/or colonization of CRC cells, animals were divided in two arms, receiving medium alone (vehicle) or supplemented with 100 µM […] peptide. The wound was closed by a double suture and each animal was given 0.1 mg caprofen (Rymadil®, Pfizer, Milan, Italy) in a physiological solution to allow post-operative pain relief and rehydration. Mice were strictly monitored until completely awake, and oral ampicillin was administered for 5 days following the surgery. Mice were euthanized at the indicated time points, and organs were photographed with a PL-200 digital photocamera (Samsung Electronics, Milan, Italy). External metastatic areas were quantified using ImageJ software.

HCCM-1544 = experiment: Liver homing model, intrasplenic implantation; type: in vivo, CD-1 nude mice; conditions: 2x10^6/mouse intrasplenically with 100 µM soluble peptide, versus vehicle
Procedure: as §4

HCT-116m [9] = experiment: Liver homing model, intrasplenic implantation; type: in vivo, CD-1 nude mice; conditions: 2x10^6/mouse intrasplenically with 100 µM soluble peptide, versus vehicle; 20 days
Procedure: as §4

LS-174T = experiment: Liver homing model, intrasplenic implantation; type: in vivo, CD-1 nude mice; conditions: 2x10^6/mouse intrasplenically with 100 µM soluble peptide, versus vehicle
Procedure: as §4

SW-48 [10] = experiment: Liver homing model, intrasplenic implantation; type: in vivo, CD-1 nude mice; conditions: 2x10^6/mouse intrasplenically with 100 µM soluble peptide, versus vehicle
Procedure: as §4

α6 integrin/E-cadherin = molecular target: T2, α6 integrin/E-cadherin (Homo sapiens, UniProt P12830+P23229); experiment: Confocal imaging of α6 integrin and E-cadherin in explanted liver tumor tissues; type: in vivo, CD-1 nude mice; conditions: LS-174T liver tumors, cells injected with soluble peptide, 14 days
T2 construct: subjected to immunostaining with anti-α6 integrin and anti-E-cadherin antibodies followed by confocal microscopic imaging; endogenous in cells; host or cells: human CRC cells (LS-174T; also HCT-116m, SW-48, DLD-1, HT-29) xenografted into the liver of CD-1 nude mice
Procedure: Immunostaining. OCT-frozen tissues were cut in 10 µm sections, paraffin-embedded tissues in 5 µm sections. For immunostaining of cell lines, 10^4 cells were plated on a SuperFrost Plus glass slide (Menzel-Glaser, Braunschweig, Germany) and were grown for 24 hours followed by fixation in 4% paraformaldehyde in PBS for 5 minutes at room temperature. Immunostaining was performed according to standard protocols. Fluorescent images were acquired with either a DMIRE2 confocal microscope or with a DMI 3000D microscope equipped with a DFC 360FX digital camera (all from Leica. Visible images were acquired with either an EC3 Leica (immunostaining of frozen tissues) or a High-Performance IEEE 1394 FireWire Digital CCD Camera (QIMAGING, Surrey, BC, Canada) (immunostaining of paraffin-embedded tissues). For the quantification of specific fluorescent signals, 3 confocal images (1024x1024 pixels, equivalent to 375x375 µm) for each sample, acquired by keeping all the parameters constant, were divided in two 8-bit images corresponding to the red and green fluorescence channels. […]
Animal models of human metastatic CRC. […] Mice were strictly monitored until completely awake, and oral ampicillin was administered for 5 days following the surgery. […] External metastatic areas were quantified using ImageJ software.

T1 sequence (P16144 28-1822): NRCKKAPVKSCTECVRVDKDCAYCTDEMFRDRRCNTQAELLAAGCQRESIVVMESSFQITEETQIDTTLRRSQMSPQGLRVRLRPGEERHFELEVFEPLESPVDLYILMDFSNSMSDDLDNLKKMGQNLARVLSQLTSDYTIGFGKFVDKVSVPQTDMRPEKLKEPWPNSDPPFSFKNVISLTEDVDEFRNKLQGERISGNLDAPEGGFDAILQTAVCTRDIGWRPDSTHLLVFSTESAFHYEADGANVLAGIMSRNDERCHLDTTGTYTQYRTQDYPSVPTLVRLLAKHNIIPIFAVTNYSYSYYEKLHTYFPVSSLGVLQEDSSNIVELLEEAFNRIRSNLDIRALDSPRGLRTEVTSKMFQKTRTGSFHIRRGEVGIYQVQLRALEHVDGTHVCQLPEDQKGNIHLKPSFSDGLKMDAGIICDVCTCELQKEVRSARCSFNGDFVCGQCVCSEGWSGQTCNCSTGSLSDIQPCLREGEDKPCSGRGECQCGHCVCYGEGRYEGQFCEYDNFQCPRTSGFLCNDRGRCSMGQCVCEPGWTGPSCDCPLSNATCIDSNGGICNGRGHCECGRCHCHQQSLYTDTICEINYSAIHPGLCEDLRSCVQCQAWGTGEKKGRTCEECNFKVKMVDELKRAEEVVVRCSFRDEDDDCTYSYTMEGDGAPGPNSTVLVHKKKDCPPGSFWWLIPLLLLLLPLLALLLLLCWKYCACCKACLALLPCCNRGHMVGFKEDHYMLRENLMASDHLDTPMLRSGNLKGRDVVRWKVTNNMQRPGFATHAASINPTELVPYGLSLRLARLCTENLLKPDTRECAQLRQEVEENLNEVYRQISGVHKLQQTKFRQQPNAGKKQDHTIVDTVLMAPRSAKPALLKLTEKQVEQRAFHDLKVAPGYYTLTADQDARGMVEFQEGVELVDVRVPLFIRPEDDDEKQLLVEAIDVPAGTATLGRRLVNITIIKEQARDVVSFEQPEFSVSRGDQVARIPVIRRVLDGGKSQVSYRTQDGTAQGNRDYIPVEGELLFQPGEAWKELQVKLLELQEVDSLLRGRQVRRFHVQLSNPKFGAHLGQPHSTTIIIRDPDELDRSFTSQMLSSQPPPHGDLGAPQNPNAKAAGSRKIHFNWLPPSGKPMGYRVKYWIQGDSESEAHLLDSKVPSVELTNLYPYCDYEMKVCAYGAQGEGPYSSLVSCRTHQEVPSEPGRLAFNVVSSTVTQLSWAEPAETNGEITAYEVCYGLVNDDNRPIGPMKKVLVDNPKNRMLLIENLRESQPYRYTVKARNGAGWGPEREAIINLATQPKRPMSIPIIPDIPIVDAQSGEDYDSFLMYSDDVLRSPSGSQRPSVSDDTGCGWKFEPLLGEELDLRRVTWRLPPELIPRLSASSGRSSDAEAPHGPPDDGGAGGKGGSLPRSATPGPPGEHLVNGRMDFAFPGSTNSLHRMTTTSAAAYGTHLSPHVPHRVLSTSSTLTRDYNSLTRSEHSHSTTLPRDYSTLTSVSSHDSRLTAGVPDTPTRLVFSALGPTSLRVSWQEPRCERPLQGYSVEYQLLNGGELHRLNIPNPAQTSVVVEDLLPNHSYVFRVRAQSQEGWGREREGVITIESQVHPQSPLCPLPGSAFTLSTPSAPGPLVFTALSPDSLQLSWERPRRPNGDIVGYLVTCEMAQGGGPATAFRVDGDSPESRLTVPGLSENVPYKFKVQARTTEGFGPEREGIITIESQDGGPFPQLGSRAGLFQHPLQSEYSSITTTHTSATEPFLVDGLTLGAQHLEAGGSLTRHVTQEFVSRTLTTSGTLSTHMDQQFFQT
T1 sequence (P23229 24-1073 isoform P23229-2 limits assumed): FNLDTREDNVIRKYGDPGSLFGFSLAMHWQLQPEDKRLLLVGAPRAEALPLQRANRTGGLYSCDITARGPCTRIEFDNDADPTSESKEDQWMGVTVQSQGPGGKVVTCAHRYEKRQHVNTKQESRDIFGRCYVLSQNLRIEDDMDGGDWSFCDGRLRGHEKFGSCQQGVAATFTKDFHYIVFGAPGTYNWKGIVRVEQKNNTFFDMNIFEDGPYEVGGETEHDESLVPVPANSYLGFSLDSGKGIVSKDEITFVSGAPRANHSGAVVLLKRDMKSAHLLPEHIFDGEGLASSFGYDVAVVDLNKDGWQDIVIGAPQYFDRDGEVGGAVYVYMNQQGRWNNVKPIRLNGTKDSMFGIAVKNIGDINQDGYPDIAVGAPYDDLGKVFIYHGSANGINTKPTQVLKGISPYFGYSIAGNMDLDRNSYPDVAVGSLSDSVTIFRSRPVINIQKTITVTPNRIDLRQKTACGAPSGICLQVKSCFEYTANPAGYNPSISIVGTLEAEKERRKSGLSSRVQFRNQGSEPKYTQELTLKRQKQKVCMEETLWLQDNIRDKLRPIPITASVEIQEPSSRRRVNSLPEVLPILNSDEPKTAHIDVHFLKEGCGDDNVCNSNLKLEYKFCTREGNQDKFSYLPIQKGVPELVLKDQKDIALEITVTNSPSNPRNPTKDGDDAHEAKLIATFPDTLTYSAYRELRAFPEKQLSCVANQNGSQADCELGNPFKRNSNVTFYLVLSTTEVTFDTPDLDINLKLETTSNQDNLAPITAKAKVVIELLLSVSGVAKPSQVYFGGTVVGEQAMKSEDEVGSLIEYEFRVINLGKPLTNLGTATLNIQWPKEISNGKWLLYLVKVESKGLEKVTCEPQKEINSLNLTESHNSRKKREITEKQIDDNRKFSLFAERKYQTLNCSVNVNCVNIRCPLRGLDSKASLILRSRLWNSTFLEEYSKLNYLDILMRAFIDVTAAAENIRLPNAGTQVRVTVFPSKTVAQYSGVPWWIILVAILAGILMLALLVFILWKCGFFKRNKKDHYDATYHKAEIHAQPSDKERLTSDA
T2 sequence (P23229 24-1073 isoform P23229-2 limits assumed): as above
T2 sequence (P12830 155-882): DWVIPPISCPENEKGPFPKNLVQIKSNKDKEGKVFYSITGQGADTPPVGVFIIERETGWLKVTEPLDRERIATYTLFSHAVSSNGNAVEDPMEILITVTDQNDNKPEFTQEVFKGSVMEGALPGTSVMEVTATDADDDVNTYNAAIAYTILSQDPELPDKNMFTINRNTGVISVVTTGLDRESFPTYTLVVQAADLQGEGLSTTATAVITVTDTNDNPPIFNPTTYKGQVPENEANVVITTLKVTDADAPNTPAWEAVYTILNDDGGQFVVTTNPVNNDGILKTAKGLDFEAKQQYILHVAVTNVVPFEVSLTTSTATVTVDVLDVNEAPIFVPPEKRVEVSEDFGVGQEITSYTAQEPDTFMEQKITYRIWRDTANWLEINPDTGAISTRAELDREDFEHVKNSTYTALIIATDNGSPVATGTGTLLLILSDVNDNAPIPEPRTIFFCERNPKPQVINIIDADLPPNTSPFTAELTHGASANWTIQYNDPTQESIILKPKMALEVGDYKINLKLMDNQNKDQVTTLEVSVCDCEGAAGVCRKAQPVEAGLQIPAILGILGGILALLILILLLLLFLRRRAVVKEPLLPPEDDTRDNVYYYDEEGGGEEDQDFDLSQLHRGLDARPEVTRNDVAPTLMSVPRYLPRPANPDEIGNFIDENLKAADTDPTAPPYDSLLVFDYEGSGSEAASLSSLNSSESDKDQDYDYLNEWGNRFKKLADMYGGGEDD
T2 sequence (P16144 28-1822 partner): as the sequence (P16144 28-1822) above

CGIYRLRSC [Targeting synthetic LRS-motif peptide, from New England Peptides]
enrichment of integrin subunit in peptide- and phage-targeted protein fractions (β4 integrin): substantial enrichment in the β4 subunit
adherence of cells to microwells coated with the peptide (NCI-H630 cells [1]; NCI-H630 cells in which ITGA6 or both mRNAs were silenced, 1 µg substrate per well, 1 hour): impaired adherence
adherence of cells to microwells coated with the peptide (NCI-H630 cells [1]; NCI-H630 cells with both α6 integrin and E-cadherin downmodulated): particularly pronounced
adhesiveness on hepatic tissues (DLD-1 [2]): significantly inhibited
adhesion to normal hepatic tissues (HCT-116 cells): not influenced
adhesiveness on hepatic tissues (HCT-116m [3]): significantly inhibited
adhesiveness on hepatic tissues (HT-29): significantly inhibited
cell adhesion to human liver sections (NCI-H630 cells [4]): significant decrease in cell adhesion
adhesiveness on hepatic tissues (SW-48 [5]): significantly inhibited
liver adhesion [6]: inhibited liver adhesion of U293 cells only when they concomitantly expressed α6 integrin and E-cadherin
proliferation [7]: no effects
liver tumors (external tumor areas) (LS-174T cells): significant reduction of liver tumors
homing of CRC cells to the liver (external metastatic areas) (DLD-1 [8]): diminished homing of CRC cells to the liver
homing of CRC cells to the liver (external metastatic areas) (HCCM-1544): diminished homing of CRC cells to the liver, which was significant
homing of CRC cells to the liver (external metastatic areas) (HCT-116m [9]): diminished homing of CRC cells to the liver, which was significant
homing of CRC cells to the liver (external metastatic areas) (LS-174T): diminished homing of CRC cells to the liver, which was significant
homing of CRC cells to the liver (external metastatic areas) (SW-48 [10]): diminished homing of CRC cells to the liver, which was significant
overall morphology and levels of receptor complex in the tumors (α6 integrin/E-cadherin): unchanged
